In patent US8058447B2, “4-Chromenonyl-1,4-dihydropyridinecarbonitriles and the use thereof” (Bayer Pharma Aktiengesellschaft, priority 2005, dated 2011):

target: T1, human mineralocorticoid receptor (MR) (Homo sapiens, UniProt P08235); test: Cellular in vitro assay to determine the inhibitory MR activity (GAL4-MR chimera luciferase reporter in CHO K1 cells); format: cell-based; details: antagonism of aldosterone-stimulated luciferase in CHO K1 cells expressing GAL4-MR chimera
T1 construct: expressed in transfected cells
T1 sequence (P08235 734-984 limits assumed): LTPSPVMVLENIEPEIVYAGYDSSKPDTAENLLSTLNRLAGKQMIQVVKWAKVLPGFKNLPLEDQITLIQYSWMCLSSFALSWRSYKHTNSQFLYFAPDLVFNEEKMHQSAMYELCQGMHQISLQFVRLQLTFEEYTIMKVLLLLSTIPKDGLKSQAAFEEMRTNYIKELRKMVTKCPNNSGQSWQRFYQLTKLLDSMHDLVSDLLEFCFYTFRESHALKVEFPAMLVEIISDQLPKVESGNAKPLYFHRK
Description: 1. Cellular In Vitro Assay to Determine the Inhibitory MR Activity and MR Selectivity Compared with Other Steroid Hormone Receptors
Antagonists of the human mineralocorticoid receptor (MR) are identified, and the activity of the compounds described herein is quantified with the aid of a recombinant cell line. The cell is originally derived from a hamster ovary epithelial cell (Chinese Hamster Ovary, CHO K1, ATCC: American Type Culture Collection, VA 20108, USA).
An established chimera system in which the ligand-binding domains of human steroid hormone receptors are fused to the DNA binding domain of the yeast transcription factor GAL4 is used in this CHO K1 cell line. The GAL4-steroid hormone receptor chimeras produced in this way are cotransfected and stably expressed with a reporter construct in the CHO cells.
To generate the GAL4-steroid hormone receptor chimeras, the GAL4 DNA binding domain (amino acids 1-147) from the vector pFC2-dbd (from Stratagene) is cloned with the PCR-amplified ligand-binding domains of the mineralocorticoid receptor (MR, amino acids 734-985), of the glucocorticoid receptor (GR, amino acids 443-777), of the progesterone receptor (PR, amino acids 680-933) and of the androgen receptor (AR, amino acids 667-919) into the vector pIRES2 (from Clontech). The reporter construct, which comprises five copies of the GAL4 binding site upstream of a thymidine kinase promoter, leads to expression of firefly luciferase (Photinus pyralis) after activation and binding of the GAL4-steroid hormone receptor chimeras by the respective specific agonists aldosterone (MR), dexamethasone (GR), progesterone (PR) and dihydrotestosterone (AR).
The MR, GR, PR and AR cells are plated out in medium (Optimem, 2.5% FCS, 2 mM glutamine, 10 mM HEPES) in 96- (or 384- or 1536-) well microtiter plates on the day before the assay and are kept in a cell incubator (96% humidity, 5% v/v CO2, 37° C.). On the day of the assay, the substances to be tested are taken up in the abovementioned medium and added to the cells. About 10 to 30 minutes after addition of the test substances, the respective specific agonists of the steroid hormone receptors are added. After a further incubation time of 5 to 6 hours, the luciferase activity is measured with the aid of a video camera. The measured relative light units as a function of the substance concentration result in a sigmoidal stimulation curve. The IC50 values are calculated with the aid of the GraphPad PRISM computer program (Version 3.02).

Row | IC50 [nM] | Structure (SMILES)
1 | 290 | CC1=C(C#N)C(c2cccc3c(=O)cc(C)oc23)C(C(=O)CC2CCCC2)=C(C)N1 (centres unmarked) [Example 41, 5-(Cyclopentylacetyl)-2,6-dimethyl-4-(2-methyl-4-oxo-4H-chromen-8-yl)-1,4-dihydropyridine-3-carbonitrile]
2 | 193 | CCOC(=O)C1=C(C)NC(C(F)(F)F)=C(C#N)C1c1cccc2c(=O)cc(C)oc12 (racemic) [Example 29, Ethyl 5-cyano-2-methyl-4-(2-methyl-4-oxo-4H-chromen-8-yl)-6-(trifluoromethyl)-1,4-dihydropyridine-3-carboxylate]
3 | 89 | CCOC(=O)C1=C(C)NC(C(F)(F)F)=C(C#N)[C@H]1c1cccc2c(=O)cc(C)oc12 (single isomer, unassigned) [Example 30]
4 | 93 | CC1=C(C#N)C(c2ccc(F)c3c(=O)cc(C)oc23)C(C(=O)CCC2CCC2)=C(C)N1 (centres unmarked) [Example 15, 5-(3-Cyclobutylpropanoyl)-4-(5-fluoro-2-methyl-4-oxo-4H-chromen-8-yl)-2,6-dimethyl-1,4-dihydropyridine-3-carbonitrile]
5 | 22 | CC1=C(C#N)[C@@H](c2cc(F)c(F)c3c(=O)cc(C)oc23)C(C(=O)OC2CCC2)=C(C)N1 (single isomer, unassigned) [Example 18]
6 | 105 | CC1=C(C#N)C(c2ccc([N+](=O)[O-])c3c(=O)cc(C)oc23)C(C(=O)OC(C)C)=C(C)N1 (centres unmarked) [Example 32, Isopropyl 5-cyano-2,6-dimethyl-4-(2-methyl-5-nitro-4-oxo-4H-chromen-8-yl)-1,4-dihydropyridine-3-carboxylate]
7 | 195 | CC1=C(C#N)C(c2ccc(F)c3c(=O)cc(C)oc23)C(C(=O)CCC(C)C)=C(C)N1 (centres unmarked) [Example 14, 4-(5-Fluoro-2-methyl-4-oxo-4H-chromen-8-yl)-2,6-dimethyl-5-(4-methylpentanoyl)-1,4-dihydropyridine-3-carbonitrile]
8 | 127 | CC1=C(C#N)C(c2ccc(F)c3c(=O)cc(C)oc23)C(C(=O)CC2CCC2)=C(C)N1 (centres unmarked) [Example 13, 5-(Cyclobutylacetyl)-4-(5-fluoro-2-methyl-4-oxo-4H-chromen-8-yl)-2,6-dimethyl-1,4-dihydropyridine-3-carbonitrile]
